According to patent publication US20190004070A9 (JNC CORPORATION, priority 2012, published 2019):
Entries after “also recorded” stand apart in the source; their conditions may differ.

How the values were obtained:
[1] = test system: human platelet rich plasma; test: Agonist-induced platelet aggregation in normal and aspirinized PRP, PAP 8E platelet aggregometer (Example 1); type: cell-based; settings: for ability to detect the drug in the presence of aspirin: aspirinized PRP, synthetic collagen 8-64 ng/mL; for effect on biological collagen-induced aggregation: Bio/Data and Chrono Log biological collagen; for effect on Bio/Data collagen-induced aggregation: Bio/Data collagen 190 μg/mL; for effect on arachidonic acid-induced aggregation: arachidonic acid 500 μg/mL; for antiplatelet effect in synthetic collagen-induced aggregation at lower concentrations: synthetic collagen 32 ng/mL and lower (32, 16, 8 ng/mL); for effect on 64 ng/mL synthetic collagen-induced aggregation: synthetic collagen 64 ng/mL
Description: ADP was obtained from Bio/Data Corporation, Horsham, Pa. Each vial was reconstituted with 1 mL of deionized water to make a 100 μM working solution. The final concentration of ADP in the aggregation cuvette was 10 μM.
Arachidonic acid was obtained from Bio/Data Corporation, Horsham, Pa. Each vial was reconstituted with 0.5 mL deionized water to make a 5 mg/mL working solution. The final concentration of arachidonic acid in the aggregation cuvette was 500 μg/mL.
Biological Collagen was obtained from Bio/Data Corporation, Horsham, Pa. Each vial was reconstituted with 0.5 mL deionized water to make a 1.9 mg/mL working solution. The final concentration of Bio/Data collagen in the aggregation cuvette was 190 μg/mL.
Biological Collagen was obtained from Chrono Log Corporation, Havertown, Pa. as a 1 mg/mL solution. A working solution of 100 μg/mL was made by dilution with physiologic saline. The final concentration of Chrono Log collagen in the aggregation cuvette was 10 μg/mL.
Synthetic collagen was provided by JNC Corporation, Yokohama, Japan at working concentrations of 80, 160, 320 and 640 ng/mL. The final concentrations of synthetic collagen in the aggregation cuvette were 64, 32, 16 and 8 ng/mL.
Approval for the collection of whole blood from healthy human volunteers was granted from the Institutional Review Board of the Health Sciences Division of Loyola University Chicago. Whole blood was drawn using a double syringe technique from the antecubital vein and anticoagulated by the addition of 1 part 3.2% sodium citrate to (9 parts blood to 1 part citrate). Citrated blood was centrifuged at 80×g at room temperature for 15 minutes to make platelet rich plasma (PRP). Supernatant PRP was collected and kept at room temperature in capped tubes. The remaining citrated blood was recentrifuged at 1,100×g for 15 minutes to make platelet poor plasma (PPP). The platelet count of the PRP was determined using an ICHOR II Analyzer, Helena Laboratories, Beaumont, Tex. Platelet count in the PRP was adjusted to 250,000-300,000/μl by the addition of homologous PPP.
Six blood donors were used for this study. Each was drawn on separate days for the ‘non-aspirinized’ and ‘aspirinized’ portions of the protocol. For the ‘non-aspirinized’ portion of the protocol, one donor ([…]) was excluded from the final analysis as the aggregation responses were markedly different from that of the other 5 donors.
Platelet aggregation was measured using a PAP 8E platelet aggregometer (Bio/Data). Each well was blanked using PPP. 25 μl of saline or antiplatelet drug and 200 μl of PRP were added to cuvettes containing magnetic stir bars and incubated for three minutes to equilibrate the sample to 37° C. 25 μl of agonist was added to each cuvette and the aggregation profile was monitored until a plateau was achieved. Results were tabulated in terms of maximal aggregation level. Under some reaction conditions, reversible aggregation was observed. This was most commonly observed with ADP and arachidonic acid-induced aggregation in the presence of ticagrelor or cilostazol. Final aggregation levels were also tabulated.

platelet aggregation = settings: Aspirin doses greater than 100 mg; cited from earlier work
[2] = test system: PRP samples of healthy donors; test: LTAAs using synthetic collagen with anti-platelet medication added to the PRP sample (Example 2); type: cell-based; settings: synthetic collagen 12.5, 25, 50, 100 ng/mL
Description: Two healthy donors supplied the PRP samples. A panel of four different synthetic collagen concentrations were tested (12.5 ng/mL, 25 ng/mL, 50 ng/mL and 100 ng/mL Abciximab was added to the each of the four panels of different synthetic collagen concentrations. In one panel, saline was added as the control to each of the four synthetic collagen concentrations. In the second panel, 12.5 μg/mL (micrograms/mL) of abciximab was added to each of the four synthetic collagen concentrations. In a third panel, 25 μg/mL of abciximab was added to each of the four synthetic collagen concentrations. In a fourth panel, 50 μg/mL of abciximab was added to each of the four synthetic collagen concentrations. LTAAs were run for each and the PA, PS, SA, SS AUC, LP, DA, MA and FA was measured for each. The tests were run on each of the donors' samples.
Two healthy donors supplied the PRP samples. […] LTAAs were run for each and the PA, PS, SA, SS AUC, LP, DA, MA and FA was measured for each. […]

[3] = non-aspirinized plasma, ADP 10 μM
[4] = non-aspirinized plasma, Chrono Log collagen 10 μg/mL

O=C1CCc2cc(OCCCCc3nnnn3C3CCCCC3)ccc2N1 [cilostazol]
ability to detect the drug in the presence of aspirin [1]: negated the ability to detect cilostazol; also recorded: affected the ability | effect on ADP-induced aggregation [1, 3]: minimally affected; also recorded: weaker, concentration-dependent inhibition | effect on biological collagen-induced aggregation ([1]; non-aspirinized plasma): unaffected | effect on Bio/Data collagen-induced aggregation ([1]; non-aspirinized plasma): did not inhibit | effect on Chrono Log collagen-induced aggregation [1, 4]: did not inhibit | effect on arachidonic acid-induced aggregation ([1]; non-aspirinized plasma): strongly inhibited | antiplatelet effect in synthetic collagen-induced aggregation at lower concentrations ([1]; non-aspirinized plasma): could be observed; also recorded: readily apparent | effect on 64 ng/mL synthetic collagen-induced aggregation ([1]; non-aspirinized plasma): did not inhibit; also recorded: minimal effect

CCCSc1nc(N[C@@H]2C[C@H]2c2ccc(F)c(F)c2)c2nnn([C@@H]3C[C@H](OCCO)[C@@H](O)[C@H]3O)c2n1 [ticagrelor, (1S,2S,3R,5S)-3-[7-[[(1R,2S)-2-(3,4-difluorophenyl)cyclopropyl]amino]-5-propylsulfanyltriazolo[4,5-d]pyrimidin-3-yl]-5-(2-hydroxyethoxy)cyclopentane-1,2-diol]
effect of aspirin dose on ticagrelor's inhibition of platelet aggregation (platelet aggregation): reduce the ability of ticagrelor to inhibit platelet aggregation | detection of the drug by synthetic collagen LTAA [2]: the assays worked with both | ability to detect the drug in the presence of aspirin [1]: affected the ability; also recorded: can be detected | anti-platelet effect in 8 ng/mL synthetic collagen-induced aggregation ([1]; aspirinized plasma): no longer observed | anti-platelet effect in 16 and 32 ng/mL synthetic collagen-induced aggregation ([1]; aspirinized plasma): reduced | anti-platelet effect in arachidonic acid-induced aggregation ([1]; aspirinized plasma): no longer observed | effect of adding aspirin on the drug's ADP-induced aggregation response ([1]; aspirinized plasma, ADP 10 μM): did not affect | effect on ADP-induced aggregation [1, 3]: strongly inhibited; also recorded: inhibited | effect on biological collagen-induced aggregation ([1]; non-aspirinized plasma): little effect | effect on Bio/Data collagen-induced aggregation ([1]; non-aspirinized plasma): Neither Bio/Data collagen, Chrono Log collagen nor 64 ng/mL synthetic collagen was markedly impacted | effect on Chrono Log collagen-induced aggregation [1, 4]: Neither Bio/Data collagen, Chrono Log collagen nor 64 ng/mL synthetic collagen was markedly impacted | effect on arachidonic acid-induced aggregation ([1]; non-aspirinized plasma): inhibited to a similar extent | antiplatelet effect in synthetic collagen-induced aggregation at lower concentrations ([1]; non-aspirinized plasma): could be identified; also recorded: readily apparent | effect on 64 ng/mL synthetic collagen-induced aggregation ([1]; non-aspirinized plasma): Neither Bio/Data collagen, Chrono Log collagen nor 64 ng/mL synthetic collagen was markedly impacted; also recorded: minimal effect

CC(=O)Oc1ccccc1C(=O)O [aspirin, 2-acetyloxybenzoic acid]
effect of aspirin on ADP-induced aggregation ([1]; 10 μM ADP): minimally affected | effect of aspirin on Chrono Log collagen-induced aggregation ([1]; 10 μg/mL Chrono Log collagen): did not inhibit; also recorded: not inhibited | effect of aspirin on Bio/Data collagen-induced aggregation ([1]; 0.19 mg/mL Bio/Data collagen): minimally affected; also recorded: not inhibited | effect of aspirin on synthetic collagen-induced aggregation ([1]; all synthetic collagen concentrations tested (8-64 ng/mL)): lower levels of aggregation; also recorded: higher sensitivity to aspirin | arachidonic acid-induced aggregation in aspirinized plasma ([1]; aspirin taken orally <48 hours before draw or 100 μM in vitro, no other drug): < 20% | response to arachidonic acid in aspirinized plasma ([1]; aspirin taken orally or 100 μM in vitro): nearly completely blunted

B1: abciximab: Immunoglobulin Fragment Fab Fragment Chimeric monoclonal antibody 7E3 (GP IIbIIIa receptor blocker) (antibody, chains of the INN, looked up, V domains shown)
VH: EVQLQQSGTVLARPGASVKMSCEASGYTFTNYWMHWVKQRPGQGLEWIGAIYPGNSDTSYIQKFKGKAKLTAVTSTTSVYMELSSLTNEDSAVYYCTLYDGYYVFAYWGQGTLVTVSA
VL: EIVLTQSPVTLSVTPGDSVSLSCRASRDISNNLHWFQQTSHESPRLLIKYASQSMSGIPSRFSGSGSGTDFTLSINSVETEDFGMYFCQQTNSWPYTFGGGTKLEIK
modifications: Fab
detection of the drug by synthetic collagen LTAA [2]: the assays worked with both | inhibition of Chrono Log collagen-induced aggregation ([1]; aspirinized PRP compared with non-aspirinized, Chrono Log collagen 10 μg/mL): stronger inhibition | ability to detect the drug in the presence of aspirin [1]: readily detectable | anti-platelet effect in arachidonic acid-induced aggregation ([1]; aspirinized plasma): complete inhibition | concentration at which inhibition of Bio/Data collagen-induced aggregation was observed ([1]; non-aspirinized plasma): 5 µg/mL | concentration at which inhibition of Chrono Log collagen-induced aggregation was observed ([1]; non-aspirinized plasma): 5 μg/mL | effect on ADP-induced aggregation [1, 3]: inhibited | effect on biological collagen-induced aggregation ([1]; non-aspirinized plasma): inhibited | effect on arachidonic acid-induced aggregation ([1]; non-aspirinized plasma): most sensitive; also recorded: inhibited | inhibition of agonist-induced aggregation ([1]; non-aspirinized plasma, concentration range tested 1.25-5 μg/mL): concentration-dependent inhibition | antiplatelet effect in synthetic collagen-induced aggregation at lower concentrations ([1]; non-aspirinized plasma): most sensitive; also recorded: readily apparent | effect on 64 ng/mL synthetic collagen-induced aggregation ([1]; non-aspirinized plasma): inhibited by abciximab to a comparable degree
